Legend:
[1] = test system: ABA induced gene expression (ABRC1-GUS) in barley aleurone cells; assay: Transient expression assay, ABRC1-GUS reporter, barley aleurone cells; format: cell-based, barley (Hordeum vulgare); conditions: 20 μM ABA, 24 h
Text: FIG. 2. FCA alters ABA but not GA pathway in barley aleurone cells. (A) Schemes of the reporter and effector constructs used in transient expression assays. (B) FCA-overexpression enhances and (D) FCA-RNAi suppresses ABA induced gene expression in barley aleurone cells. (C and E) GA induced gene expression is not affected. The reporter construct ABRC1-GUS or Amy32b-GUS was cobombarded into barley embryoless half-seeds with (+) or without (−) effector constructs Ubi-HvFCA-RNAi or Ubi-HvFCA. Bars indicate GUS activities ±SE after 24 h of incubation of bombarded embryoless half-seeds in shooting buffer with or without 20 μM ABA or 1 μM GA.
FIG. 9. FCA-overexpression enhances ABA induced gene expression in barley aleurone cells. (A) Schemes of the reporter and effector constructs used in transient expression assays. (B) The reporter construct ABRC1-GUS was cobombarded into barley embryoless half-seeds with (+) or without (−) effector constructs Ubi-HvFCA or Ubi-OsFCA. Bars indicate GUS activities ±SE after 24 h of incubation of bombarded embryoless half-seeds in shooting buffer with (+) or without (−) 10 μM ABA.
Rice (Oryza sativa) cultivar Tainung 67 was used in this study. Rice seedlings were grown in Kimura B nutrient solution at 28° C., 16L/8D photoperiod. Barley seeds (Hordeum vulgare L. cv. Himalaya) were used in all the transient assays. […]

[2] = test system: ABA induced gene expression (ABRC1-GUS) in rice aleurone cells; assay: ABRC1-GUS reporter expression assay in transgenic rice embryoless half-seeds (aleurone cells); format: cell-based, rice (Oryza sativa); conditions: wild type rice aleurone cells; 20 μM ABA, 24 h
Method: FIG. 1. FCA-overexpression enhances and FCA-RNAi suppresses ABA induced gene expression in rice aleurone cells. The reporter construct (A) ABRC1-GUS was bombarded into (B) FCA-overexpression and (C) FCA-RNAi transgenic rice embryoless half-seeds. Bars indicate GUS activities ±SE after 24 h of incubation of bombarded seeds in shooting buffer with or without 20 μM ABA.
Rice (Oryza sativa) cultivar Tainung 67 was used in this study. Rice seedlings were grown in Kimura B nutrient solution at 28° C., 16L/8D photoperiod. Barley seeds (Hordeum vulgare L. cv. Himalaya) were used in all the transient assays. Embryoless half-seeds were prepared as described (Gomez-Cadenas et al., 2001).
Rice FCA cDNA clones (GenBank Accession Numbers AK073225 and AK058419) were supplied by Rice Genome Resource Center (RGRC) of National Institute of Agricultural Sciences (NIAS). Coding region of rice FCA was amplified from FCA cDNA clone by PCR. Coding region of barley FCA was amplified from total RNA of barley seed by RT-PCR. For underexpression of FCA, nucleotide number 307-822 of rice FCA ORF and nucleotide number 1532-1945 of barley FCA ORF were amplified. All PCR products were T/A cloned into pCR8/GW/TOPO vector (Invitrogen). Sequences and orientations of inserts in vector were confirmed by sequencing. […]

[3] = molecular target: T1, VP1 (Zea mays, UniProt P26307); assay: In planta two-hybrid study; format: binding
T1 sequence (P26307 1-691): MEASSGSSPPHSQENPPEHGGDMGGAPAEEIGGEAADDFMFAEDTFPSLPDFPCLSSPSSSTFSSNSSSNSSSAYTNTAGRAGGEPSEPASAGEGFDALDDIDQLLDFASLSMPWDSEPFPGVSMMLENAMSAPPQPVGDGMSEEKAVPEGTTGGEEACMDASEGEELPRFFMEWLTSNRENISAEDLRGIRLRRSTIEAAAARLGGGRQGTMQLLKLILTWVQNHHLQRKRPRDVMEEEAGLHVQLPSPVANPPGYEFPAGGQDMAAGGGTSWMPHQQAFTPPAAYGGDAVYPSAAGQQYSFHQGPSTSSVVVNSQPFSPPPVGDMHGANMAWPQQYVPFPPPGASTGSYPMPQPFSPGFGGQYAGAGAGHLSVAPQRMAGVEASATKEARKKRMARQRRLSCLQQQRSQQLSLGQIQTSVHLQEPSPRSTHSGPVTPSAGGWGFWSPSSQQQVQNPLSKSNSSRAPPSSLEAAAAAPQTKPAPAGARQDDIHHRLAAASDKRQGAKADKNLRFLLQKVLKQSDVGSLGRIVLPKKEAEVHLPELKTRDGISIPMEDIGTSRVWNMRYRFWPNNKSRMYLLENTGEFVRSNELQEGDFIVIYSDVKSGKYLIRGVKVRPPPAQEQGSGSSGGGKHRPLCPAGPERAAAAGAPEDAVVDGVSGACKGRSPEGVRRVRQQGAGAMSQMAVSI

[4] = test system: ABI5; assay: In planta two-hybrid study; format: binding

CC1=CC(=O)CC(C)(C)C1(O)/C=C/C(C)=C\C(=O)O (stereo not shown) [ABA]
ABRC1-GUS reporter induction by ABA treatment [1]: highly induced | ABRC1-GUS reporter induction by ABA treatment [2]: highly induced

B1: OsFCA: Rice FCA protein, nuclear RNA-binding protein, SEQ ID NO: 1 (protein, listed as Oryza sativa)
chain: MHRGGDRSTDPSSGPAPGSRGGGDGRFGRGPSRWSSGGGGGGSGSPPHRFSRGGGGGGGDGGGGGGGGGRFHPYRGPSDHSGGGGYRSGGGGEYGEPGSGPRHRYGSGRGDHSDHDNRNNYVKLFIGSVPRTATEDDVRPLFEEHGDVVEVALIKDRKTGEQQGCCFVKYATSEEAERAIRALHNQYTLPGAMGPIQVRYADGERERHGAIEHKLFVASLNKQATAKEIEEIFAPYGHVEDVYIMKDGMRQSRGCGFVKFSSREPALAAMSALSGNYVMRGCEQPLIIRFADPKRPRPGGSRGGPAFGGPGFSPRSDAALVIRPTANLDEPRGRHMPPDSWHPSSPRSAPHQFNNFGSDNPMAPKGSTVTSTTDTATFRPQMFSGNGSLSSQTAVPSSSHMGMNPPPMAQGHHLGGQQIPPLQKLPGLPQNFPVQLQNNQLGQPLQGPAQQIGQLQVPQSMGPGSFGQNRLSGQLPVSQPLMQQNASVSAVQVPSAVSNSMQAIPGQQHLPSNVAPQMLQQPVQQMPSQAPQLLLQQQAALQSSYQSSQQAIYQLQQQLQLMQQQQQSNLNHQQPTQGQPVQSSNPGAPNAIIPSNINTIPQQATSPAVPLTCNWTEHTSPEGFKYYYNSITRESKWDKPEEYVLYEQQQQQQQQQKLLLLQQHKQKLAMQQLQSPPQAQTHPAMQPVQQIPQAQQGQQQMQMKQQELNYTQLQTPGAIDPSRIQQGIQSAQERAWKS
Interaction with VP1 [3]: interacts with VP1 | Interaction with ABI5 [4]: not with ABI5 directly

From US10036033B2, “Method of inhibiting sprouting in plant tissues” (Academia Sinica, priority 2014, dated 2018)
